According to PubChem BioAssay AID1259408 (Genetic Toxicology Data Bank (GENE-TOX), 2018):
The source made the active and inactive calls. No rule for the calls is given here.

System: GENE-TOX genotoxicity assays, various organisms and cells
Experiment: GENE-TOX mutagenicity studies
Conditions: for call: Assay Type: In vivo carcinogenicity studies
[1] = Species/Cell Type: Human lymphocytes, Assay Type: Sister-chromatid exchange (SCE) in vitro, Assay Code: SCLT, Evaluation Type: Evaluation B (Post-1980)
[2] = Species/Cell Type: Nonhuman, Assay Type: Sister-chromatid exchange (SCE) in vivo, Assay Code: SC3T, Evaluation Type: Evaluation B (Post-1980)
[3] = Species/Cell Type: Salmonella typhimurium (one or more of the five standard strains: TA98, TA100, TA1535, TA1537, and TA1538), Assay Type: Histidine reverse gene mutation, Ames assay, Assay Code: SAL+, Evaluation Type: Evaluation A (Pre-1980)
[4] = Species/Cell Type: Nonhuman, Assay Code: CCGT, Evaluation Type: Evaluation A (Pre-1980)
[5] = Species/Cell Type: Escherichia coli polA (W3119 vs P3478), Assay Type: Rec-assay, DNA effects (bacterial DNA repair), Assay Code: RE1+, Evaluation Type: Evaluation A (Pre-1980)
[6] = Species/Cell Type: Drosophila melanogaster, Assay Type: Sex-linked recessive lethal gene mutation, Assay Code: SRLT, Evaluation Type: Evaluation A (Pre-1980)
[7] = Species/Cell Type: Human, Assay Type: Sister-chromatid exchange (SCE) in vitro, Assay Code: SC1T, Evaluation Type: Evaluation B (Post-1980)
[8] = Species/Cell Type: Syrian hamster embryo (SA7/SHE) cells, Assay Type: Cell transformation, viral enhanced, Assay Code: CT7+, Evaluation Type: Evaluation A (Pre-1980)
[9] = Species/Cell Type: Saccharomyces cerevisiae, Assay Type: Mitotic recombination or gene conversion, Assay Code: YEC-, Evaluation Type: Evaluation A (Pre-1980)
[10] = Species/Cell Type: Salmonella typhimurium (one or more of the five standard strains: TA98, TA100, TA1535, TA1537, and TA1538), Assay Type: Histidine reverse gene mutation, Ames assay, Assay Code: SALT, Evaluation Type: Evaluation A (Pre-1980)
[11] = Species/Cell Type: Bacillus subtilis (H17 vs M45), Assay Type: Rec-assay, spot test, DNA effects (bacterial DNA repair), Assay Code: REW+, Evaluation Type: Evaluation A (Pre-1980)
[12] = Species/Cell Type: Nonhuman, Assay Code: CCG+, Evaluation Type: Evaluation A (Pre-1980)

Cc1ccc(O)cc1
mutagenic call (Species/Cell Type: Allium cepa, Assay Type: Chromosome aberrations, Assay Code: ALCT, Evaluation Type: Evaluation A (Pre-1980)): no conclusion | mutagenic call [1]: no conclusion | mutagenic call (Species/Cell Type: Human, Assay Type: Sister-chromatid exchange (SCE) in vitro, Assay Code: SC1-, Evaluation Type: Evaluation B (Post-1980)): inactive; negative | mutagenic call [2]: no conclusion

CCN(CCCC(=O)O)N=O
mutagenic call [3]: active; positive

C=CCNC(=O)OC1(Sc2ccccc2)C(=O)c2ccccc2C1=O
mutagenic call (Species/Cell Type: Salmonella typhimurium, Assay Type: Forward and reverse gene mutation, host-mediated assay, Assay Code: HMAT, Evaluation Type: Evaluation A (Pre-1980)): no conclusion

CCCC(C)(COC(N)=O)COC(N)=O
mutagenic call (Species/Cell Type: Drosophila melanogaster, Assay Type: Aneuploidy, partial sex chromosome loss, chromosome aberrations, Assay Code: DAPT, Evaluation Type: Evaluation A (Pre-1980)): no conclusion | mutagenic call (Species/Cell Type: Drosophila melanogaster, Assay Type: Aneuploidy, whole sex chromosome loss, chromosome aberrations, Assay Code: DAC-M, Evaluation Type: Evaluation A (Pre-1980)): inactive; negative | mutagenic call (Species/Cell Type: Drosophila melanogaster, Assay Type: Sex-linked recessive lethal gene mutation, Assay Code: SRL-, Evaluation Type: Evaluation A (Pre-1980)): inactive; negative

Cc1c2c(c(C)c3c1ccc1ccccc13)[C@H](O)[C@@H](O)C=C2
call [4]: no conclusion

N/C=N/O
mutagenic call [5]: active; positive

Oc1ccc2ccc3c4ccccc4cc4ccc1c2c43
mutagenic call (Species/Cell Type: Chinese hamster lung (V79) cells, Assay Type: Forward gene mutation at the HPRT or ouabain locus, Assay Code: V79+/-*, Activation: With metabolic activation, Evaluation Type: Evaluation A (Pre-1980)): inactive; positive without activation, negative with activation | mutagenic call (Species/Cell Type: Escherichia coli polA (W3110 vs P3478), Assay Type: Rec-assay, DNA effects (bacterial DNA repair), Assay Code: RE2+, Evaluation Type: Evaluation A (Pre-1980)): active; positive | mutagenic call (Species/Cell Type: Escherichia coli polA (W3119 vs P3478), Assay Type: Rec-assay, DNA effects (bacterial DNA repair), Assay Code: RE1T, Evaluation Type: Evaluation A (Pre-1980)): no conclusion | call [4]: no conclusion | mutagenic call (Species/Cell Type: Saccharomyces cerevisiae, Assay Type: Mitotic recombination or gene conversion, Assay Code: YEH-, Evaluation Type: Evaluation A (Pre-1980)): inactive; negative | mutagenic call [3]: active; positive | mutagenic call (Species/Cell Type: Salmonella typhimurium, Assay Type: Forward and reverse gene mutation, host-mediated assay, Assay Code: HMA-, Evaluation Type: Evaluation A (Pre-1980)): inactive; negative

Cc1c2ccccc2cc2c3c(ccc12)C=C[C@@H](O)[C@@H]3O
mutagenic call (Species/Cell Type: Mouse prostate cells, Assay Type: Cell transformation, Assay Code: CTM+, Evaluation Type: Evaluation A (Pre-1980)): active; positive | call [4]: no conclusion | mutagenic call (Species/Cell Type: Nonhuman, Assay Type: Sister-chromatid exchange (SCE) in vitro, Assay Code: SC2+, Evaluation Type: Evaluation A (Pre-1980)): active; positive

Nc1nc(=O)n([C@H]2C[C@H](O)[C@@H](CO)O2)cc1Br
mutagenic call (Species/Cell Type: Arabidopsis species, Assay Type: Gene mutation, Assay Code: ARM+, Evaluation Type: Evaluation A (Pre-1980)): active; positive | mutagenic call [6]: no conclusion | mutagenic call [1]: no conclusion | mutagenic call [7]: no conclusion | mutagenic call [8]: active; positive

O=C1CC[C@@]2(O)[C@H]3Cc4ccc(O)c5c4[C@@]2(CCN3CC2CC2)[C@H]1O5
mutagenic call (Species/Cell Type: Drosophila melanogaster, Assay Type: Sex-linked recessive lethal gene mutation, Assay Code: SRL+, Evaluation Type: Evaluation A (Pre-1980)): active; positive | mutagenic call (Species/Cell Type: Drosophila melanogaster, Sex: Male, Assay Type: Heritable translocation test, chromosome aberrations, Assay Code: DHT-, Evaluation Type: Evaluation A (Pre-1980)): inactive; negative | mutagenic call (Species/Cell Type: Human diploid fibroblasts, Assay Type: Unscheduled DNA synthesis (UDS) in vitro, DNA effects, Assay Code: UDH+, Evaluation Type: Evaluation A (Pre-1980)): active; positive | mutagenic call [9]: inactive; negative | mutagenic call [10]: no conclusion

CCN(CC)c1ccc2c(-c3ccccc3C(=O)O)c3ccc(=[N+](CC)CC)cc-3oc2c1
mutagenic call (Species/Cell Type: Bacillus subtilis (H17 vs M45T), Assay Type: Rec-assay, spot test, DNA effects (bacterial DNA repair), Assay Code: REXT, Evaluation Type: Evaluation A (Pre-1980)): no conclusion | mutagenic call [6]: no conclusion | call [4]: no conclusion | mutagenic call [2]: no conclusion | mutagenic call [9]: inactive; negative | mutagenic call (Species/Cell Type: Salmonella typhimurium (one or more of the five standard strains: TA98, TA100, TA1535, TA1537, and TA1538), Assay Type: Histidine reverse gene mutation, Ames assay, Assay Code: SAL+*, Activation: With metabolic activation, Evaluation Type: Evaluation A (Pre-1980)): active; positive

O=S(=O)(O)CCS
mutagenic call [1]: no conclusion | mutagenic call [7]: no conclusion

C=CC1C(C)OC(=O)C1C(C)=O (centres undefined)
mutagenic call (Species/Cell Type: Allium cepa, Assay Type: Chromosome aberrations, Assay Code: ALC+, Evaluation Type: Evaluation A (Pre-1980)): active; positive

Cc1c2ccccc2c(C2CO2)c2ccccc12 (centres undefined)
mutagenic call [3]: active; positive

COc1cc(NNc2ccccc2)ccc1N=O
mutagenic call [3]: active; positive

CC(C)C[C@H](NP(=O)(O)O[C@@H]1O[C@@H](C)[C@H](O)[C@@H](O)[C@H]1O)C(=O)N[C@@H](Cc1c[nH]c2ccccc12)C(=O)O
mutagenic call [7]: no conclusion

CC1CC2=C(CCC2=O)c2ccc3ccccc3c21 (centres undefined)
mutagenic call [10]: no conclusion

CC(C)(C)OOCO
mutagenic call (Species/Cell Type: Neurospora crassa, Assay Type: Reverse gene mutation, Assay Code: NER+, Evaluation Type: Evaluation A (Pre-1980)): active; positive

CNC(=O)Oc1cc(C)c(N(C)C)c(C)c1
call (Species/Cell Type: Nonhuman, Assay Code: CCG-L, Evaluation Type: Evaluation A (Pre-1980)): inactive; negative

O=[As](=O)O[As](=O)=O
mutagenic call [11]: active; positive | mutagenic call (Species/Cell Type: Nonhuman, Assay Type: Sister-chromatid exchange (SCE) in vitro, Assay Code: SC2+, Evaluation Type: Evaluation B (Post-1980)): active; positive

[S]=[Mo]=[S]
mutagenic call [8]: active; positive

Cl[Te](Cl)(Cl)Cl
mutagenic call [11]: active; positive

O=[N+]([O-])c1ccc(N2CCN(Cc3ccccc3)CC2)c2c1no[n+]2[O-]
mutagenic call [3]: active; positive

C=COC(C)=O
mutagenic call (Species/Cell Type: Human lymphocytes, Assay Type: Sister-chromatid exchange (SCE) in vitro, Assay Code: SCL+D, Dose Response: With dose response, Evaluation Type: Evaluation B (Post-1980)): active; positive | mutagenic call (Species/Cell Type: Human, Assay Type: Sister-chromatid exchange (SCE) in vitro, Assay Code: SC1+D, Dose Response: With dose response, Evaluation Type: Evaluation B (Post-1980)): active; positive | mutagenic call (Species/Cell Type: Mammalian polychromatic erythrocytes, Assay Type: Micronucleus test, chromosome aberrations, Assay Code: MNT+, Evaluation Type: Evaluation B (Post-1980)): active; positive | call (Species/Cell Type: Nonhuman, Assay Code: CCG+L, Evaluation Type: Evaluation A (Pre-1980)): active; positive | mutagenic call (Species/Cell Type: Nonhuman, Assay Type: Sister-chromatid exchange (SCE) in vitro, Assay Code: SC2+D, Dose Response: With dose response, Evaluation Type: Evaluation B (Post-1980)): active; positive | mutagenic call (Species/Cell Type: Salmonella typhimurium (one or more of the five standard strains: TA98, TA100, TA1535, TA1537, and TA1538), Assay Type: Histidine reverse gene mutation, Ames assay, Assay Code: SAL-, Evaluation Type: Evaluation A (Pre-1980)): inactive; negative | mutagenic call [8]: active; positive

CCCCC(CC)COC(=O)c1ccccc1C(=O)OCC(CC)CCCC (centres undefined)
call [12]: active; positive | mutagenic call (Species/Cell Type: Nonhuman, Assay Type: Sister-chromatid exchange (SCE) in vitro, Assay Code: SC2T, Evaluation Type: Evaluation A (Pre-1980)): no conclusion | mutagenic call (Species/Cell Type: Rodents, Sex: Male, Assay Type: Dominant lethal test, Assay Code: DLT+, Evaluation Type: Evaluation A (Pre-1980)): active; positive

CCC(C)I (centres undefined)
mutagenic call [5]: active; positive

Cc1ccc([N+](=O)[O-])o1
mutagenic call (Species/Cell Type: Bacillus subtilis (H17 vs M45T), Assay Type: Rec-assay, spot test, DNA effects (bacterial DNA repair), Assay Code: REX+, Evaluation Type: Evaluation A (Pre-1980)): active; positive | mutagenic call (Species/Cell Type: Syrian hamster embryo (SHE) cells, Assay Type: Cell transformation, clonal assay, Assay Code: CTC+, Evaluation Type: Evaluation A (Pre-1980)): active; positive

COC(=O)CN(CC(=O)OC)C1C[C@H]1N(CC(=O)OC)CC(=O)OC (some centres undefined)
mutagenic call (Species/Cell Type: Chinese hamster lung (V79) cells, Assay Type: Forward gene mutation at the HPRT or ouabain locus, Assay Code: V79+, Evaluation Type: Evaluation A (Pre-1980)): active; positive

O=NN(CCO)CCO
mutagenic call (Species/Cell Type: Mammalian polychromatic erythrocytes, Assay Type: Micronucleus test, chromosome aberrations, Assay Code: MNTT, Evaluation Type: Evaluation B (Post-1980)): no conclusion | call [12]: active; positive

CCOC(=O)C1C(C=C(C)C)C1(C)C (centres undefined)
mutagenic call (Species/Cell Type: Human diploid fibroblasts, Assay Type: Unscheduled DNA synthesis (UDS) in vitro, DNA effects, Assay Code: UDH-, Evaluation Type: Evaluation A (Pre-1980)): inactive; negative | mutagenic call (Species/Cell Type: Saccharomyces cerevisiae, Assay Type: Mitotic recombination or gene conversion, Assay Code: YEH+, Evaluation Type: Evaluation A (Pre-1980)): active; positive
